Measurements from patent US20250241944A1 (CALIFORNIA INSTITUTE OF TECHNOLOGY, priority 2023, published 2025).
“Also recorded” adds a separate entry of the source. Read-outs that look alike come from different tables or passages of the source.

What was measured:
[1] = tested on: WT Pseudomonas aeruginosa UCBPP-PA14; assay: Antibiotic treatment assay with viable plate counts (percent survival / log killing); conditions: for log killing: OD500=2, chlorate 10 mM, tobramycin 31.25 μg/mL
[2] = tested on: P. aeruginosa biofilms; conditions: via Nar activity, reference [32]; cited from earlier work
[3] = humans; cited from earlier work
[4] = tested on: RPA (Riverside Pseudomonas aeruginosa) planktonic cultures; assay: In vitro planktonic drug treatment, viable cell counts; assay type: cell-based; conditions: 24 h, ciprofloxacin 10 μg/mL, sodium chlorate 10 mM
[5] = tested on: RPA-infected chronic wounds; conditions: diabetic mouse model, reference [227]; cited from earlier work
[6] = tested on: RPA Anar strain (AnarGHJI); conditions: 24 h
Method: (§1) All experiments used Luria-Bertani (LB; Difco) as the growth medium, supplemented with KNO3 as specified. Aerobic liquid cultures were incubated at 37° C. with shaking at 250 RPM. Anaerobic work was conducted in an anaerobic glove box with a 95% N2-5% H2 atmosphere, and anaerobic cultures were incubated at 37° C.
For in vitro planktonic drug treatment studies, overnight RPA cultures were grown aerobically in LB broth supplemented with 40 mM KNO3. […] Cell resuspensions were added to 96-well plates (150 μL per well), and one 96-well plate was incubated statically (not shaking) at 37° C. at ambient oxygen, while a duplicate 96-well plate was incubated statically at 37° C. under anoxia (anaerobic glove box). Drug treatments were incubated for 24 h, after which cultures were serially diluted for viable cell counts. Viable cell counts were performed by serially diluting samples in phosphate-buffered saline (PBS). […] After incubation at 37° C., colonies were counted to quantify colony-forming units (CFU) per milliliter for each culture. Percent survival was calculated for each condition by dividing CFU/mL values from a drug treated sample by the average CFU/mL value from control (no drug) samples and multiplying by 100. […]
For in vitro biofilm drug studies, agar block biofilm assays (ABBAs) were used. […] Viable cell counts and percent survival were calculated for ABBA samples as described above.

[7] = mammals lack Nar; cited from earlier work
[8] = tested on: RPA-infected chronic wounds
Method: A diabetic mouse model (db/db−/−) of chronic wounds that mimics chronic wounds in humans was used to investigate wound healing.
Wounds were treated daily between 10 and 40 days postwounding.
The quality of wound healing in treated mice was characterized by performing histological and immunofluorescence analyses on day 40 wounds (FIG. 18 Panel A).
To distinguish between and visualize the distribution of collagen I and collagen III in the granulation tissue, the wounds were also stained with Picrosirius Red (PSR). […] Collagen IV immunolabeling was used to show whether basal lamina under the epidermis was present, an important indicator of proper connectivity of the epithelium with the underlying dermis. […] Keratin 14/16 is a cytokeratin found in proliferating keratinocytes of the epidermis and is observed in the cytoplasm surrounding the nucleus.
Blood vessel development during wound healing is another indicator of proper healing. The number of microvessels present in the granulation tissue was quantified by immunolabeling the wound tissue with a-smooth muscle actin (aSMA), a protein that is present in the cells surrounding blood vessels.

[9] = tested on: RPA aggregate biofilms; conditions: ABBA, 24 h; final 10 μg/mL ciprofloxacin, 10 mM sodium chlorate
Method: as §1
For in vitro biofilm drug studies, agar block biofilm assays (ABBAs) were used. Briefly, to set up ABBA, overnight RPA cultures were diluted to OD500=0.001 into cooled molten agar (44° C.) composed of LB with 5 mM KNO3 and 1% agar. Before the agar solidified, 500 μL of the cell-agar suspension was added to 2-mL Eppendorf tubes, after which samples were allowed to solidify. Eppendorf tubes were incubated at 37° C. for 24 h to allow cells to grow as aggregate biofilms suspended within the agar medium. After this growth incubation, ABBA samples were washed twice with 200 μL of PBS to remove cell growth that was not suspended within the agar. […] Drug treatments were incubated for 24 h at 37° C. To determine viable cell counts, ABBA samples were first homogenized by adding 300 μL of PBS to each sample and homogenizing on speed 3 with a Bio-Gen PRO200 Homogenizer (PRO Scientific).

[10] = five drugs of the study, hypoxic cultures
[11] = hypoxic conditions (static), 24 h, ciprofloxacin 1 μg/mL, ceftazidime 10 μg/mL
[12] = 24 h, hypoxic vs oxic conditions

Row | Molecule | O2-dependence of efficacy (hypoxic compared to oxic) [1] | capacity for synergy across drug classes [1, 10] | synergy of chlorate-antibiotic combination ([1]; hypoxic conditions, 24 h) | toxicity / killing of P. aeruginosa cultures (in words) ([1]; hypoxic conditions, 24 h) | toxicity / killing of P. aeruginosa cultures (in words) ([1]; oxic conditions, 24 h) | susceptibility of planktonic cultures (in words) ([4]; anoxic (anaerobic glove box)) | susceptibility of planktonic cultures (in words) ([4]; oxic (static, ambient oxygen)) | toxicity / killing of P. aeruginosa cultures (in words) ([1]; anoxic conditions, 24 h) | log killing [1, 11] [log] | O2-dependence of efficacy (hypoxic compared to oxic) [1, 12] | other results
1 | CC(C)(O/N=C(\C(=O)N[C@@H]1C(=O)N2C(C(=O)[O-])=C(C[n+]3ccccc3)CS[C@H]12)c1csc(N)n1)C(=O)O [ceftazidime] | does not exhibit O2-dependent efficacy | do not | synergizing | completely resistant; also recorded: remain viable | completely resistant | – | – | – | – | – | reduction of the effective (lethal, toxic) ceftazidime dose by chlorate addition [1]: > 100 fold; ceftazidime concentrations to which P. aeruginosa is resistant ([1]; hypoxic cultures, 24 h, ceftazidime alone): ≤ 1,000 μg/mL
2 | [O-][Cl+2]([O-])O [chlorate, sodium chlorate] | – | wide-ranging synergistic interactions; also recorded: broad capacity for synergy | – | little-to-no killing; also recorded: remain viable | nontoxic | highly susceptible | highly tolerant | most effective; also recorded: some toxicity | 0.2 | – | killing of O2-limited, antibiotic-tolerant biofilm populations [2]: kills; estimated lethal oral dose [3]: 20-35 grams; healing of P. aeruginosa-infected chronic wounds by topical treatment [5]: supports the healing; susceptibility of Nar-lacking strain (in words) [6]: highly resistant; toxicity against mammals [7]: low toxicity; effectiveness at promoting wound healing, comparison between treatments ([8]; day 40): as effective as ciprofloxacin; PSR staining: collagen I and collagen III in the granulation tissue ([8]; day 40 healed wounds): staining of both collagen I and collagen III; collagen IV immunolabeling: basement membrane under the epithelium ([8]; day 40 healed wounds): formed a basement membrane; aSMA immunolabeling: microvessels in the granulation tissue ([8]; day 40 wounds): showed microvessels; quality of the wound tissue ([8]; day 40 wounds, histology): significantly improved; log killing ([1]; anoxic conditions (anaerobic glove box), 24 h): ~2.5 log; toxicity / killing of P. aeruginosa cultures (in words) ([1]; anoxic conditions, 24 h, listed as Chlorate): most toxic; toxicity / killing of P. aeruginosa cultures (in words) ([1]; hypoxic conditions, 24 h, listed as Chlorate): nontoxic
3 | O=C(O)c1cn(C2CC2)c2cc(N3CCNCC3)c(F)cc2c1=O [ciprofloxacin] | substantially less toxic | – | synergizing | – | – | highly susceptible | highly susceptible | – | ~1.5 | – | killing / susceptibility of aggregate biofilms (in words) [9]: susceptible to ciprofloxacin but show greater survival than planktonic cells
4 | NC[C@H]1O[C@H](O[C@H]2[C@H](O)[C@@H](O[C@H]3O[C@H](CO)[C@@H](O)[C@H](N)[C@H]3O)[C@H](N)C[C@@H]2N)[C@H](N)C[C@@H]1O [tobramycin] | – | – | – | – | most effective | – | – | some toxicity | – | substantially less toxic | capacity for synergy across drug classes [1]: do not; synergy of chlorate-antibiotic combination [1]: synergizing; toxicity / killing of P. aeruginosa cultures (in words) ([1]; oxic conditions, 24 h, listed as Tobramycin): below our detection limit
5 | colistin | – | wide-ranging synergistic interactions; also recorded: broad capacity for synergy | synergizing | – | – | – | – | – | – | only marginally less effective at killing hypoxic cultures | P. aeruginosa viability after colistin combined with tobramycin, ciprofloxacin or ceftazidime [1]: below our detection limit; synergy in antibiotic-antibiotic combinations ([1]; hypoxic conditions, 24 h): displays synergistic interactions; also recorded: synergized
